Experimental data published in article PMC12990037, “Discovery of Two Structurally Distinct Classes of Inhibitors Targeting the Nuclease MUS81 and Enhancing Efficacy of Chemotherapy in Cancer Cells” (Journal of Medicinal Chemistry, 2026).

How the values were obtained:
CAL51 WT cells = experiment: γH2AX foci after cisplatin treatment; format: cell-based; conditions: compared to the DMSO controls
Procedure: 7 MUS81 inhibitors synergize with cisplatin to reduce cancer cell viability. (A,B) U2OS cells were treated with DMSO, MU262, or MU876 at the indicated concentrations in combination with a range of cisplatin (0–5 μM) for 96–120 h. Cell viability was assessed by the Cy-Quant assay. The survival was normalized to the DMSO-treated control. Graphs were generated in Graphpad Prism using the nonlinear regression fitting model. n ≥ 3, error bars represent s.d. (C) CAL51 WT cells were treated with DMSO, MU262, or MU876 at the indicated concentrations at each passage over 2 weeks. Cisplatin (12 μM) was added for the last 24 h before harvest. DNA damage was assessed by quantifying γH2AX foci using fluorescence microscopy and CellProfiller software. Data were visualized plotted in R software. Red markers represent the median of γH2AX foci number per nucleus; blue markers represent the percentage of cells with ≥20 γH2AX foci per nucleus. n = 3, error bars represent s.d.; ****p <0.0001 (unpaired, two-tailed t-test). […]
U2OS, CAL51 WT, and CAL51 MUS81^–/– cells (10,000) were seeded in a 96-well plate 24 h before the treatment. […] The γH2AX foci were detected and quantified using CellProfiler (Broad Institute of MIT and Harvard). The analyzed data were plotted in RStudio software using R programming language.

Microsomal stability = format: in vitro ADME
[1] = system: major cytochrome P450 isoforms; experiment: Cytochrome P450 inhibition; format: in vitro ADME
U2OS cells = experiment: EdU/PI cell cycle assay; format: cell-based; conditions: 72 h; for cell cycle progression: 0.5 μM; for cell cycle profile: 1 μM
Procedure: Given these promising findings, we further investigated the specificity of MU262 and MU876 and potential short-term cytotoxicity. To mirror the treatment duration used in BIR and HR assays, U2OS cells were exposed to the inhibitors or siRNA for 3 days.
U2OS WT cells (300,000) were seeded in a 6-well plate; a subset of them was treated with either control siRNA or siRNA targeting MUS81. After adhesion, cells were treated with the respective inhibitors for 72 h during which CPT ([…], Sigma-Aldrich) was added for the last 16 h and 10 μM EdU (Sigma-Aldrich) was added for the last 1 h. Cells were then harvested and stained by using the Click-iT EdU Alexa Fluor 647 Flow Cytometry Assay Kit (Thermo Fisher Scientific). Finally, cells were resuspended in 1xPBS containing 5 μg/mL of propidium iodide (PI) and analyzed using a BD FACSVerse flow cytometer (Becton Dickinson) and FlowJo software (BD Life Sciences). At least 20,000 cells were used for each measurement, and experiments were performed in duplicates.

Compound	γH2AX foci following cisplatin treatment (CAL51 WT cells)	microsomal stability (Microsomal stability)	inhibition of major cytochrome P450 isoforms [1]	cell cycle progression (U2OS cells)	cell cycle profile (U2OS cells)
Cc1cc(=O)[nH]c(-n2nc(-c3ccccc3)cc2NC(=O)c2cc(-c3ccccc3)on2)n1 [Compound 32, N-(1-(4-Methyl-6-oxo-1,6-dihydropyrimidin-2-yl)-3-phenyl-1H-pyrazol-5-yl)-5-phenylisoxazole-3-carboxamide]	significantly reduced the number of γH2AX foci in a concentration-dependent manner	good microsomal stability	do not significantly inhibit major cytochrome P450 isoforms	neither MU262 and MU876 affected the cell cycle progression	mild increase in the S phase
CCc1nn2c(O)c(-c3nc4ccccc4[nH]3)nnc2c1-c1ccc(F)cc1 [Compound 18, 3-(1H-Benzo[d]imidazole-2-yl)-7-ethyl-8-(4-fluorophenyl)pyrazolo[5,1-c][1,2,4]triazin-4-ol]	significantly reduced the number of γH2AX foci in a concentration-dependent manner	good microsomal stability	do not significantly inhibit major cytochrome P450 isoforms	neither MU262 and MU876 affected the cell cycle progression	mild increase in the S phase
